Active and inactive are the calls of the source. No cut-off for these calls is given here.
Experiments:
Helicobacter pylori [1] = assay: Antibacterial activity against Helicobacter pylori SS1 infected in Mongolian gerbils assessed as bacterial orientation in 15 to 25 um above the Juxtamucosal layer at 35 ug/ml administered as single dose in 8 hrs dosing interval; format: functional, organism-based
Helicobacter pylori [2] = assay: (§1) Antibacterial activity against Helicobacter pylori SS1 infected in Mongolian gerbils assessed as bacterial density in mucus in 15 to 25 um above the Juxtamucosal layer at 0.25 mg, ip administered as two doses of solvent in 24 hrs dosing interval measured after 90 mins post last dose (reference value: 2280+/-430 bacteria per nl of mucus); format: functional
Helicobacter pylori [3] = assay: (§2) Antibacterial activity against Helicobacter pylori SS1 infected in Mongolian gerbils assessed as bacterial density in mucus in 0 to 15 um above the Juxtamucosal layer at 0.25 mg, ip followed by second dose administered as solvent in 24 hrs dosing interval measured after 90 mins post last dose (reference value: 4560+/-400 bacteria per nl of mucus); format: functional
Helicobacter pylori [4] = assay: Antibacterial activity against Helicobacter pylori SS1 infected in Mongolian gerbils assessed as bacterial disorientation in luminal mucus layer at 0.25 mg, ip followed by second dose administered as solvent in 24 hrs dosing interval measured after 90 mins post last dose; format: functional, organism-based
Helicobacter pylori [5] = assay: (§3) Antibacterial activity against Helicobacter pylori SS1 infected in Mongolian gerbils assessed as bacterial density in mucus in central mucus layer at 20 uM, ip administered as single dose through dialysis measured after 90 mins post last dose (reference value: 90+/-60 bacteria per nl of mucus); format: functional
Helicobacter pylori [6] = assay: as §2, with “luminal mucus” for “0 to 15 um above the Juxtamucosal”, “60+/-50” for “4560+/-400”; format: functional
Helicobacter pylori [7] = assay: Antibacterial activity against Helicobacter pylori SS1 infected in Mongolian gerbils assessed as bacterial density in mucus in central mucus layer at 100 uM, ip administered as single dose through dialysis measured after 90 mins post last dose; format: functional
Helicobacter pylori [8] = assay: as §3, with “15 to 25 um above the Juxtamucosal” for “central mucus”, “2280+/-430” for “90+/-60”; format: functional
Helicobacter pylori [9] = assay: Antibacterial activity against Helicobacter pylori SS1 infected in Mongolian gerbils assessed as bacterial disorientation in central mucus layer at 0.25 mg, ip followed by second dose administered as solvent in 24 hrs dosing interval measured after 90 mins post last dose; format: functional, organism-based
Helicobacter pylori [10] = assay: as §1, with “luminal mucus” for “15 to 25 um above the Juxtamucosal”, “doses” for “doses of solvent”, “8” for “24”, “60+/-50” for “2280+/-430”; format: functional
[11] = Cmax in Mongolian gerbils plasma; format: ADME, Meriones unguiculatus; settings: gerbil
Helicobacter pylori [12] = assay: as §3, with “0 to 15 um above the Juxtamucosal” for “central mucus”, “4560+/-400” for “90+/-60”; format: functional
Helicobacter pylori [13] = assay: Antibacterial activity against Helicobacter pylori SS1 infected in Mongolian gerbils assessed as bacterial disorientation in central layer at 0.25 mg, ip administered as two doses of solvent measured after 90 mins post last dose (reference value: 4560+/-400 bacteria per nl of mucus); format: functional, organism-based
Helicobacter pylori [14] = assay: Antibacterial activity against Helicobacter pylori SS1 infected in Mongolian gerbils assessed as bacterial disorientation in central mucus layer at 20 uM, ip administered as single dose through dialysis measured after 90 mins post last dose; format: functional, organism-based
Helicobacter pylori [15] = assay: Antibacterial activity against Helicobacter pylori SS1 infected in Mongolian gerbils assessed as bacterial orientation in luminal mucus layer at 0.25 mg, ip administered as two subsequent doses in 8 hrs dosing interval; format: functional, organism-based
Helicobacter pylori [16] = assay: Antibacterial activity against Helicobacter pylori SS1 infected in Mongolian gerbils assessed as bacterial orientation in central layer at 35 ug/ml administered as single dose in 8 hrs dosing interval; format: functional, organism-based
Helicobacter pylori [17] = assay: Antibacterial activity against Helicobacter pylori SS1 infected in Mongolian gerbils assessed as bacterial disorientation in 15 to 25 um above the Juxtamucosal layer at 0.25 mg, ip administered as two doses in 24 hrs dosing interval measured after 90 mins post last dose; format: functional, organism-based
Helicobacter pylori [18] = assay: Antibacterial activity against Helicobacter pylori SS1 infected in Mongolian gerbils assessed as bacterial orientation in 15 to 25 um above the Juxtamucosal layer at 0.25 mg, ip administered as two subsequent doses in 8 hrs dosing interval; format: functional, organism-based
Helicobacter pylori [19] = assay: Antibacterial activity against Helicobacter pylori SS1 infected in Mongolian gerbils assessed as bacterial disorientation in luminal mucus layer at 0.25 mg, ip administered as two doses in 8 hrs dosing interval measured after 90 mins post last dose; format: functional, organism-based
Helicobacter pylori [20] = assay: Antibacterial activity against Helicobacter pylori SS1 infected in Mongolian gerbils assessed as bacterial disorientation in 0 to 15 um above the Juxtamucosal layer at 0.25 mg, ip administered as two doses in 24 hrs dosing interval measured after 90 mins post last dose; format: functional, organism-based
Helicobacter pylori [21] = assay: as §1, with “luminal mucus” for “15 to 25 um above the Juxtamucosal”, “doses” for “doses of solvent”, “60+/-50” for “2280+/-430”; format: functional
Helicobacter pylori [22] = assay: as §1, with “disorientation” for “density in mucus”, “solvent” for “solvent in 24 hrs dosing interval”, “4560+/-400” for “2280+/-430”; format: functional, organism-based
Helicobacter pylori [23] = assay: Antibacterial activity against Helicobacter pylori SS1 infected in Mongolian gerbils assessed as bacterial disorientation in 15 to 25 um above the Juxtamucosal layer at 0.25 mg, ip administered as two doses in 8 hrs dosing interval measured after 90 mins post last dose; format: functional, organism-based
Helicobacter pylori [24] = assay: Antibacterial activity against Helicobacter pylori SS1 infected in Mongolian gerbils assessed as bacterial disorientation in 0 to 15 um above the Juxtamucosal layer at 0.25 mg, ip followed by second dose administered as solvent in 24 hrs dosing interval measured after 90 mins post last dose; format: functional, organism-based
Helicobacter pylori [25] = assay: as §1, with “central mucus” for “15 to 25 um above the Juxtamucosal”, “90+/-60” for “2280+/-430”; format: functional
Helicobacter pylori [26] = assay: Antibacterial activity against Helicobacter pylori SS1 infected in Mongolian gerbils assessed as bacterial density in mucus in luminal mucus layer at 100 uM, ip administered as single dose through dialysis measured after 90 mins post last dose; format: functional
Helicobacter pylori [27] = assay: as §1, with “doses” for “doses of solvent”, “8” for “24”; format: functional
Helicobacter pylori [28] = assay: as §1, with “doses” for “doses of solvent”; format: functional

Compound: COc1ccc2[nH]c([S+]([O-])Cc3ncc(C)c(OC)c3C)nc2c1 (stereo not drawn) [OMEPRAZOLE]
- Activity (Helicobacter pylori [1]): inactive
- Activity (Helicobacter pylori [2]): 2260 nL⁻¹
- Activity (Helicobacter pylori [3]): 4790 nL⁻¹
- Activity (Helicobacter pylori [4]): inactive
- Activity (Helicobacter pylori [5]): 70 nL⁻¹
- Activity (Helicobacter pylori [6]): 50 nL⁻¹
- Activity (Helicobacter pylori [7]): 60 nL⁻¹
- Activity (Helicobacter pylori [8]): 2010 nL⁻¹
- Activity (Helicobacter pylori [9]): inactive
- Activity (Helicobacter pylori [10]): 30 nL⁻¹
- Cmax [11]: 10 µM
- Activity (Helicobacter pylori [12]): 5050 nL⁻¹
- Activity (Helicobacter pylori [13]): inactive
- Activity (Helicobacter pylori [14]): inactive
- Activity (Helicobacter pylori [15]): inactive
- Activity (Helicobacter pylori [16]): inactive
- Activity (Helicobacter pylori [17]): Active
- Activity (Helicobacter pylori [18]): inactive
- Activity (Helicobacter pylori [19]): inactive
- Activity (Helicobacter pylori [20]): Active
- Activity (Helicobacter pylori [21]): 120 nL⁻¹
- Activity (Helicobacter pylori [22]): inactive
- Activity (Helicobacter pylori [23]): inactive
- Activity (Helicobacter pylori [24]): Active
- Activity (Helicobacter pylori [25]): 40 nL⁻¹
- Activity (Helicobacter pylori [26]): 60 nL⁻¹
- Activity (Helicobacter pylori [27]): 1800 nL⁻¹
- Activity (Helicobacter pylori [28]): 2230 nL⁻¹

— ChEMBL document CHEMBL1649554, “Specific therapeutic schemes of omeprazole affect the orientation of Helicobacter pylori” (Antimicrob Agents Chemother, 2009)
